pIC50: −log10 of the molar value.
Molecular target: T1, PD-1/PD-L1 protein/protein interaction (recombinant human PD-L1 protein (19-238), recombinant human PD-1 protein (25-167)) (Homo sapiens, UniProt Q9NZQ7)
T1 construct: Recombinant human PD-L1 protein (19-238) with a His-tag at the C-terminus; purchased AcroBiosystems PD1-H5229 (PD-L1-His); PD1-H5257 (PD-1-Fc)
Assay: PD-1/PD-L1 Homogeneous Time-Resolved Fluorescence (HTRF) Binding Assay
Conditions: 25° C., PBS buffer (pH 7.4), 40 minutes preincubation with inhibitors
Method: The assays were conducted in a standard black 384-well polystyrene plate with a final volume of 20 μL. Inhibitors were first serially diluted in DMSO and then added to the plate wells before the addition of other reaction components. The final concentration of DMSO in the assay was 1%. The assays were carried out at 25° C. in the PBS buffer (pH 7.4) with 0.05% Tween-20 and 0.1% BSA. Recombinant human PD-L1 protein (19-238) with a His-tag at the C-terminus was purchased from AcroBiosystems (PD1-H5229). Recombinant human PD-1 protein (25-167) with Fc tag at the C-terminus was also purchased from AcroBiosystems (PD1-H5257). PD-L1 and PD-1 proteins were diluted in the assay buffer and 10 μL was added to the plate well. Plates were centrifuged and proteins were preincubated with inhibitors for 40 minutes. The incubation was followed by the addition of 10 μL of HTRF detection buffer supplemented with Europium cryptate-labeled anti-human IgG (PerkinElmer-AD0212) specific for Fc and anti-His antibody conjugated to SureLight®-Allophycocyanin (APC, PerkinElmer-AD0059H). After centrifugation, the plate was incubated at 25° C. for 60 min. before reading on a PHERAstar FS plate reader (665 nm/620 nm ratio). Final concentrations in the assay were […], 10 nM PD-L1, 1 nM europium anti-human IgG and 20 nM anti-His-Allophycocyanin. IC50 determination was performed by fitting the curve of percent control activity versus the log of the inhibitor concentration using the GraphPad Prism 5.0 software.

T1 sequence (Q9NZQ7 19-238): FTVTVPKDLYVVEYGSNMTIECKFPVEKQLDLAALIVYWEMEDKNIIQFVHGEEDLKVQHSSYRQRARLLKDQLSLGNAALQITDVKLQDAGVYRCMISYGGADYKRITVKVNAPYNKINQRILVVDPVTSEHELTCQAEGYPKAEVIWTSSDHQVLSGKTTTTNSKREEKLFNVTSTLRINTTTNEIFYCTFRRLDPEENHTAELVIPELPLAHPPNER

| pIC50 | SMILES |
| --- | --- |
| ≥ 8.00 | Cc1c(Nc2nccc3cc(CN4CC[C@@H](O)C4)cnc23)cccc1-c1cccc(NC(=O)c2nc3c(n2C)CCN(CC[C@H]2CC[C@H](C(=O)O)CC2)C3)c1Cl (single isomer, unassigned) [Example 52] |
| ≥ 8.00 | Cc1c(Nc2nccc3cc(CN4CC[C@@H](O)C4)cnc23)cccc1-c1cccc(NC(=O)c2nc3c(n2C)CCN(CC[C@H]2CC[C@@H](C(=O)O)CC2)C3)c1Cl (single isomer, unassigned) [Example 53] |
| ≥ 8.00 | Cc1c(NC(=O)c2nc3c(n2C)CCN(C2CCC(C)(C(=O)O)CC2)C3)cccc1-c1cccc(Nc2nccc3cc(CN4CC[C@@H](O)C4)cnc23)c1C (single isomer, unassigned) [Example 62-peak1] |
| ≥ 8.00 | Cc1c(NC(=O)c2nc3c(n2C)CCN(C2CCC(C)(C(=O)O)CC2)C3)cccc1-c1cccc(Nc2nccc3cc(CN4CC[C@@H](O)C4)cnc23)c1C (single isomer, unassigned) [Example 62-peak2] |
| ≥ 8.00 | Cc1c(NC(=O)c2nc3c(n2C)CCN(C2CCC(C(=O)O)CC2)C3)cccc1-c1cccc(Nc2nccc3cc(CN4CC[C@@H](O)C4)cnc23)c1C (single isomer, unassigned) [Example 64-peak1] |
| ≥ 8.00 | Cc1c(NC(=O)c2nc3c(n2C)CCN(C2CCC(C(=O)O)CC2)C3)cccc1-c1cccc(Nc2nccc3cc(CN4CC[C@@H](O)C4)cnc23)c1C (single isomer, unassigned) [Example 64-peak2] |
| ≥ 8.00 | Cc1c(Nc2ncnc3cc(CN4CC[C@@H](O)C4)cnc23)cccc1-c1cccc(NC(=O)c2nc3c(n2C)CCN(C2CCC(C)(C(=O)O)CC2)C3)c1Cl (single isomer, unassigned) [Example 68-peak1] |
| ≥ 8.00 | Cc1c(Nc2ncnc3cc(CN4CC[C@@H](O)C4)cnc23)cccc1-c1cccc(NC(=O)c2nc3c(n2C)CCN(C2CCC(C)(C(=O)O)CC2)C3)c1Cl (single isomer, unassigned) [Example 68-peak2] |
| ≥ 8.00 | Cc1c(-c2nc3c(s2)CNCC3)cccc1-c1cccc(Nc2nccc3cc(CNCCO)cnc23)c1Cl [Example 1, 2-(((8-((2-chloro-2′-methyl-3′-(4,5,6,7-tetrahydrothiazolo[5,4-c]pyridin-2-yl)-[1,1′-biphenyl]-3-yl)amino)-1,7-naphthyridin-3-yl)methyl)amino)ethan-1-ol] |
| ≥ 8.00 | Cc1c(Nc2nccc3cc(CNCCO)cnc23)cccc1-c1cccc(NC(=O)c2ccc(CNC3(C(=O)O)CCC3)cn2)c1F [Example 2, 1-(((6-(2-fluoro-3′-(3-((2-hydroxyethylamino)methyl)-1,7-naphthyridin-8-ylamino)-2′-methylbiphenyl-3-ylcarbamoyl)pyridin-3-yl)methyl)amino)cyclobutanecarboxylic acid] |
| ≥ 8.00 | Cc1c(Nc2nccc3cc(CNCCO)cnc23)cccc1-c1cccc(NC(=O)c2ccc(CN3CCCC[C@H]3C(=O)O)cn2)c1F [Example 3, (S)-1-((6-((2-fluoro-3′-((3-(((2-hydroxyethyl)amino)methyl)-1,7-naphthyridin-8-yl)amino)-2′-methyl-[1,1′-biphenyl]-3-yl)carbamoyl)pyridin-3-yl)methyl)piperidine-2-carboxylic acid] |
| ≥ 8.00 | Cc1c(Nc2nccc3cc(CNCCO)cnc23)cccc1-c1cccc(NC(=O)c2ccc(CNCCO)cn2)c1F [Example 4, N-(2-fluoro-3′-((3-(((2-hydroxyethyl)amino)methyl)-1,7-naphthyridin-8-yl)amino)-2′-methyl-[1,1′-biphenyl]-3-yl)-5-(((2-hydroxyethyl)amino)methyl)picolinamide] |
| ≥ 8.00 | Cc1c(Nc2nccc3cc(CNCCO)cnc23)cccc1-c1cccc(NC(=O)c2ccc(CNCCO)cn2)c1Cl [Example 5, N-(2-chloro-3′-((3-(((2-hydroxyethyl)amino)methyl)-1,7-naphthyridin-8-yl)amino)-2′-methyl-[1,1′-biphenyl]-3-yl)-5-(((2-hydroxyethyl)amino)methyl)picolinamide] |
| ≥ 8.00 | Cc1c(Nc2nccc3cc(CN4CC[C@@H](O)C4)cnc23)cccc1-c1cccc(NC(=O)c2ccc(CN3CC[C@@H](O)C3)cn2)c1Cl [Example 6, N-(2-chloro-3′-((3-(((R)-3-hydroxypyrrolidin-1-yl)methyl)-1,7-naphthyridin-8-yl)amino)-2′-methyl-[1,1′-biphenyl]-3-yl)-5-(((R)-3-hydroxypyrrolidin-1-yl)methyl)picolinamide] |
| ≥ 8.00 | Cc1c(Nc2nccc3cc(CN4CC[C@@H](C(=O)O)C4)cnc23)cccc1-c1cccc(NC(=O)c2ccc(CN3CC[C@@H](O)C3)cn2)c1Cl [Example 7, (R)-1-((8-((2′-chloro-3′-(5-(((R)-3-hydroxypyrrolidin-1-yl)methyl)picolinamido)-2-methyl-[1,1′-biphenyl]-3-yl)amino)-1,7-naphthyridin-3-yl)methyl)pyrrolidine-3-carboxylic acid] |
| ≥ 8.00 | Cc1c(Nc2nccc3cc(CN4CC(C(=O)O)C4)cnc23)cccc1-c1cccc(NC(=O)c2ccc(CN3CC[C@@H](O)C3)cn2)c1Cl [Example 8, (R)-1-((8-((2′-chloro-3′-(5-((3-hydroxypyrrolidin-1-yl)methyl)picolinamido)-2-methyl-[1,1′-biphenyl]-3-yl)amino)-1,7-naphthyridin-3-yl)methyl)azetidine-3-carboxylic acid] |
| ≥ 8.00 | Cc1c(Nc2nccc3cc(CN4CC[C@@H](O)C4)cnc23)cccc1-c1cccc(Nc2nccc3cc(CN4CC[C@@H](C(=O)O)C4)cnc23)c1C [Example 9, (R)-1-((8-((3′-((3-(((R)-3-hydroxypyrrolidin-1-yl)methyl)-1,7-naphthyridin-8-yl)amino)-2,2′-dimethyl-[1,1′-biphenyl]-3-yl)amino)-1,7-naphthyridin-3-yl)methyl)pyrrolidine-3-carboxylic acid] |
| ≥ 8.00 | Cc1c(Nc2nccc3cc(CN4CC[C@@H](O)C4)cnc23)cccc1-c1cccc(Nc2nccc3cc(CN4CC[C@H](C(=O)O)C4)cnc23)c1C [Example 10, (S)-1-((8-((3′-((3-(((R)-3-hydroxypyrrolidin-1-yl)methyl)-1,7-naphthyridin-8-yl)amino)-2,2′-dimethyl-[1,1′-biphenyl]-3-yl)amino)-1,7-naphthyridin-3-yl)methyl)pyrrolidine-3-carboxylic acid] |
| ≥ 8.00 | Cc1c(Nc2nccc3cc(CNCCO)cnc23)cccc1-c1cccc(Nc2nccc3cc(CN4CC[C@@H](C(=O)O)C4)cnc23)c1C [Example 11, (R)-1-((8-((3′-((3-(((2-hydroxyethyl)amino)methyl)-1,7-naphthyridin-8-yl)amino)-2,2′-dimethyl-[1,1′-biphenyl]-3-yl)amino)-1,7-naphthyridin-3-yl)methyl)pyrrolidine-3-carboxylic acid] |
| ≥ 8.00 | Cc1c(Nc2nccc3cc(CN4CC[C@H](O)C4)cnc23)cccc1-c1cccc(Nc2nccc3cc(CN4CC[C@@H](C(=O)O)C4)cnc23)c1C [Example 12, (R)-1-((8-((3′-((3-(((S)-3-hydroxypyrrolidin-1-yl)methyl)-1,7-naphthyridin-8-yl)amino)-2,2′-dimethyl-[1,1′-biphenyl]-3-yl)amino)-1,7-naphthyridin-3-yl)methyl)pyrrolidine-3-carboxylic acid] |
| ≥ 8.00 | Cc1c(Nc2nccc3cc(CN4CC[C@H](O)C4)cnc23)cccc1-c1cccc(Nc2nccc3cc(CN4CC[C@H](C(=O)O)C4)cnc23)c1C [Example 13, (S)-1-((8-((3′-((3-(((S)-3-hydroxypyrrolidin-1-yl)methyl)-1,7-naphthyridin-8-yl)amino)-2,2′-dimethyl-[1,1′-biphenyl]-3-yl)amino)-1,7-naphthyridin-3-yl)methyl)pyrrolidine-3-carboxylic acid] |
| ≥ 8.00 | Cc1c(NC(=O)c2nc3c(n2C)CCN(C)C3)cccc1-c1cccc(Nc2nccc3cc(CN4CC(C(=O)O)C4)cnc23)c1Cl [Example 14, 1-((8-(2-chloro-3′-(1,5-dimethyl-4,5,6,7-tetrahydro-1H-imidazo[4,5-c]pyridine-2-carboxamido)-2′-methylbiphenyl-3-ylamino)-1,7-naphthyridin-3-yl)methyl)azetidine-3-carboxylic acid] |
| ≥ 8.00 | Cc1c(Nc2nccc3cc(CN4CC[C@@H](O)C4)cnc23)cccc1-c1cccc(NC(=O)c2cc(CN3CC[C@@H](C(=O)O)C3)cn(C)c2=O)c1Cl [Example 15, (R)-1-((5-(2-chloro-3′-(3-(((R)-3-hydroxypyrrolidin-1-yl)methyl)-1,7-naphthyridin-8-ylamino)-2′-methylbiphenyl-3-ylcarbamoyl)-1-methyl-6-oxo-1,6-dihydropyridin-3-yl)methyl)pyrrolidine-3-carboxylicacid] |
| ≥ 8.00 | Cn1cc(CN2CC[C@@H](O)C2)cc(C(=O)Nc2cccc(-c3cccc(Nc4nccc5cc(CN6CC(C(=O)O)C6)cnc45)c3Cl)c2Cl)c1=O [Example 16, (R)-1-((8-(2,2′-dichloro-3′-(5-((3-hydroxypyrrolidin-1-yl)methyl)-1-methyl-2-oxo-1,2-dihydropyridine-3-carboxamido)biphenyl-3-ylamino)-1,7-naphthyridin-3-yl)methyl)azetidine-3-carboxylic acid] |
